Experimental data as given in patent publication US11649222B2, “Compounds” (UNIVERSITETET I OSLO, priority 2016, dated 2023).
“Also recorded” adds a separate entry of the source. Like-named read-outs stand apart in the source and are kept apart here.

Assays:
E. coli 50639799 (VIM-1) = assay: Microbroth dilution MIC of meropenem with/without inhibitor; assay type: cell-based
Protocol: (§1) • Plate bacterial strain(s) on appropriate media: • Gram-negative bacteria with ESBLs or carbapenemases: green agar plates with 100 mg/L ampicillin • Gram-negative bacteria without β-lactamases: green agar plates • Gram-positive bacteria (Staphylococci and Enterococci): blood agar plates • Incubate o.n. at 37° C. Day 2: Prepare the Bacterial Inoculum: • Prepare a 0.5 McFarland suspension of bacteria in 0.85% NaCl. (Should be used within 15 min of preparation). • Dilute the 0.5 McFarland suspension 1:100 into MH broth. Check the inoculum by diluting the prepared bacterial suspension 1:100 (10 μl bacterial suspension+990 μl 0.85% NaCl). Plate 10 μl of the dilution on MH agar plates (×2). Incubate o.n. at 37° C., count the colonies and calculate the final CFU/ml inoculum in the plate by multiplying the average number of colonies with 10000 and divide by 2. The final inoculum should be between 3-7×10^5 CFU/ml. • Add 50 μl of the prepared bacterial suspension to each well in the microtiter plate except negative growth control. Preparation of Compounds/Antibiotics • Calculate the desired concentration-range and volume of the compounds/antibiotics in the assay. […] Dilute the stock solution in MH broth. Make subsequent 2-fold dilutions in MH broth of the desired concentrations if a concentration range is to be tested (remember the extra dilution factor in the assay plate). Always include extra volume for pipetting. Take into consideration stock solutions that are made in buffers that have an effect on bacterial growth (e.g. DMSO).
(§2) This experimental design was used for the results in Tables 2-6 below.

E. coli K71-77 (NDM-1) = assay: as above; assay type: cell-based
Protocol: as §1, §2

[1] = test system: K. pneumoniae A3-81 (VIM-1); assay: as above; assay type: cell-based
Protocol: as §1, §2

[2] = test system: K. pneumoniae 50732159 (No MBL); assay: as above; assay type: cell-based; details: inhibitor 25 mg/L
Protocol: as §1, with “Day 2: Prepare the Bacterial Inoculum: • Prepare a 0.5 McFarland suspension of bacteria in 0.85% NaCl.” left out, “Check the inoculum by diluting the prepared bacterial suspension 1:100 (10 μl bacterial suspension+990 μl 0.85% NaCl).” left out

[3] = test system: P. aeruginosa 50692172 (NDM-1); assay: as above; assay type: cell-based; details: inhibitor 25 mg/L
Protocol: as §1, with “Day 2: Prepare the Bacterial Inoculum: • Prepare a 0.5 McFarland suspension of bacteria in 0.85% NaCl.” left out, “Check the inoculum by diluting the prepared bacterial suspension 1:100 (10 μl bacterial suspension+990 μl 0.85% NaCl).” left out

[4] = test system: P. aeruginosa 50808021 (No MBL); assay: as above; assay type: cell-based; details: inhibitor 25 mg/L
Protocol: as §1, with “Day 2: Prepare the Bacterial Inoculum: • Prepare a 0.5 McFarland suspension of bacteria in 0.85% NaCl.” left out, “Check the inoculum by diluting the prepared bacterial suspension 1:100 (10 μl bacterial suspension+990 μl 0.85% NaCl).” left out

human hepG2 cells = assay: In vitro toxicity in human hepG2 cells (AlamarBlue viability); assay type: cell-based; details: for IC50: human hepG2 cells
Outline: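 HepG2 cells at 20,000/well adhered overnight, then were exposed to compounds at 1 to 1×10^−6 mM (DMSO ≤1%) for 24 h at 37 °C. Viability was read with AlamarBlue (10% final) after a further 4 h at 37 °C.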

E. coli (NDM) = assay: Microbroth dilution MIC of meropenem ± 25 mg/L inhibitor; assay type: cell-based; details: E. coli NDM (several strains)
Protocol: as §1

K. pneumoniae (NDM) = assay: as above; assay type: cell-based; details: K. pneumoniae NDM (several strains)
Protocol: as §1

K. pneumoniae K66-45 = assay type: cell-based
Protocol: After plating and grown overnight at 37° C., only single colonies, ignoring any touching the edges of the plate, were counted.
10^9 CFU K66-45 (Mueller-Hinton broth, no selection) was plated and grown overnight, 37° C. Only single colonies, ignoring any touching the edges of the plate, were counted.

VIM-2 = VIM-2 (Escherichia coli, UniProt Q5U7L7); assay type: biochemical
Protocol: The eluent used was Chelex-treated HEPES 50 mM buffer, pH 7.5. […] In all experiments, 16 aliquots of 250 μL were taken from the PD-10 column runsout and enzyme activity was analysed. Enzyme activity was measured by adding Nitrocefin as a reporter substrate (final concentration of 50 μM).
To investigate if more extreme time-dependent and concentration-dependent conditions could restore enzyme activity, aliquots having final concentrations of 30 nM column-treated enzyme and 1000 μM Zn^2+ on ice and at room temperature over prolonged time.

[5] = test system: human serum albumin and α1-acid glycoprotein (AGP); details: 500 μM Example 26; HSA and AGP 24:1 up to 140 μM
Protocol: Enzymes in the kit are immobilized at a solid phase. […] Buffer without inhibitor was included as a control. After incubation, the suspensions were centrifuged and diluted 1:10 in 50 mM HEPES buffer pH 7.5 supplemented with 1 μM zinc^2+ and VIM-2 (final concentration 1 nM).

Compound | Meropenem activity without inhibitor (E. coli 50639799 (VIM-1)) [mg/L] | Meropenem activity without inhibitor (E. coli K71-77 (NDM-1)) [mg/L] | Meropenem activity without inhibitor [1] [mg/L] | Meropenem activity in presence of inhibitor [2] [mg/L] | Meropenem activity in presence of inhibitor [3] [mg/L] | Meropenem activity in presence of inhibitor [4] [mg/L] | EC50 in hepG2 cells (human hepG2 cells; hepG2 cells) | IC50 (human hepG2 cells; 24 hours, AlamarBlue, 8 replicates, read-out: IC50) [µM] | IC50 (human hepG2 cells; read-out: IC50h) [µM] | MIC meropenem + 25 mg/L Example 26 (E. coli (NDM)) [µg/mL] | MIC meropenem + 25 mg/L Example 26 (K. pneumoniae (NDM)) [µg/mL] | Resistance/mutant frequency (number of colonies) (K. pneumoniae K66-45; Example 26 15 mg/L, 8 mg/L MEM) | Resistance/mutant frequency (number of colonies) (K. pneumoniae K66-45; Example 26 25 mg/L, 4 mg/L MEM) | Resistance/mutant frequency (number of colonies) (K. pneumoniae K66-45; Example 26 25 mg/L, 8 mg/L MEM) | Resistance/mutant frequency (number of colonies) (K. pneumoniae K66-45; Example 26 50 mg/L, 4 mg/L MEM) | Resistance/mutant frequency (number of colonies) (K. pneumoniae K66-45; Example 26 50 mg/L, 8 mg/L MEM) | enzyme activity restored (VIM-2; 15 nM impaired enzyme spiked with ZnSO4 0-100 μM) [%] | residual enzyme activity (VIM-2; 50 nM VIM-2 + 140 mg/L Example 26, 1 hour on ice, PD-10 eluate fraction 5) [%] | irreversibility of VIM-2 inhibition (VIM-2; purified VIM-2, PD-10 column) | effect of protein binding on inhibition of VIM-2 [5]
C[C@@H](O)[C@H]1C(=O)N2C(C(=O)O)=C(S[C@@H]3CN[C@H](C(=O)N(C)C)C3)[C@H](C)[C@H]12 [meropenem, reference compound] | 8 to 32 | 1 to 8 | 64 to 256 |  |  |  |  |  |  |  |  |  |  |  |  |  |  |  |  | 
CN(C[C@H](O)[C@@H](O)[C@H](O)[C@H](O)CO)C(=O)c1ccc(CN(Cc2ccccn2)Cc2ccccn2)nc1 [Example 26, 6-((bis(pyridin-2-ylmethyl)amino)methyl)-N-methyl-N-((2S,3R,4R,5R)-2,3,4,5,6-pentahydroxyhexyl)nicotinamide] |  |  |  | 32 | 4 | >64 | non-toxic | > 1000 | ≥ 116 | 0.125 | 0.06 | n.c. | n.c. | n.c. | n.c. | n.c. | 40 | 33 | irreversibly inhibits VIM-2; also recorded: irreversibly inhibited | protein binding is not affecting the inhibitory activity
